In PubChem BioAssay (NCI):
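Dose response: 5 concentrations. Exposure: 48 h. Format: 96-well plates. Endpoint: linear interpolation; highest concentration if not reached. TGI marks complete inhibition of growth.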

Legend:
Assay in all cases: NCI anticancer screen, dose series, 48 h
[1] = system: 786-0 renal
[2] = system: A498 renal
[3] = system: A549 NSCLC
[4] = system: ACHN renal
[5] = system: BT-549 breast
[6] = system: CAKI-1 renal
[7] = system: CCRF-CEM leukemia
[8] = system: COLO 205 colon
[9] = system: DU-145 prostate
[10] = system: EKVX NSCLC
[11] = system: HCC-2998 colon
[12] = system: HCT-116 colon
[13] = system: HCT-15 colon
[14] = system: HL-60(TB) leukemia
[15] = system: HOP-92 NSCLC
[16] = system: HS 578T breast
[17] = system: HT29 colon
[18] = system: IGROV1 ovarian
[19] = system: K-562 leukemia
[20] = system: KM12 colon
[21] = system: LOX IMVI melanoma
[22] = system: M14 melanoma
[23] = system: MALME-3M melanoma
[24] = system: MCF7 breast
[25] = system: MDA-MB-231 breast
[26] = system: MDA-MB-435
[27] = system: MDA-N
[28] = system: MOLT-4 leukemia
[29] = system: NCI-H226 lung
[30] = system: NCI-H23 lung
[31] = system: NCI-H460 lung
[32] = system: NCI-H522 lung
[33] = system: NCI/ADR-RES ovarian
[34] = system: OVCAR-3 ovarian
[35] = system: OVCAR-4 ovarian
[36] = system: OVCAR-5 ovarian
[37] = system: OVCAR-8 ovarian
[38] = system: PC-3 prostate
[39] = system: RPMI-8226 leukemia
[40] = system: SF-268 CNS
[41] = system: SF-295 CNS
[42] = system: SF-539 CNS
[43] = system: SK-MEL-2 melanoma
[44] = system: SK-MEL-28 melanoma
[45] = system: SK-MEL-5 melanoma
[46] = system: SK-OV-3 ovarian
[47] = system: SN12C renal
[48] = system: SNB-19 CNS
[49] = system: SNB-75 CNS
[50] = system: SW-620 colon
[51] = system: T-47D breast
[52] = system: TK-10 renal
[53] = system: U251 CNS
[54] = system: UACC-257 melanoma
[55] = system: UACC-62 melanoma
[56] = system: UO-31 renal
[57] = system: HOP-62 NSCLC
[58] = system: RXF 393 renal
[59] = system: SR leukemia

Measured: TGI

COc1ccc(NC(=O)/C(=N\NC(=O)C[n+]2ccccc2)c2c(O)c3ccc(O)cc3oc2=O)c([N+](=O)[O-])c1
not listed: [57] | [58] | [59]
> 100 µM: all other assays above

COc1ccc(-c2c3c(nc4nc(SCCc5ccccc5)nc(N)c24)CCCC3)cc1OC
not listed: [1] | [2] | [11] | [15] | [29] | [32] | [43]
> 100 µM: all other assays above
